Measured values from patent publication US12486218B2, “Compounds advantageous in the treatment of central nervous system diseases and disorders” (AurimMed Pharma, Inc., priority 2008, dated 2025).

How the values were obtained:
rats [1] = test: MES test, rats p.o.; assay type: in vivo; conditions: Rattus norvegicus, po
rats [2] = test: Preliminary Hippocampal Kindling Screening in rats (i.p.); assay type: in vivo; conditions: at 100 mg/kg
rats [3] = test: Sciatic nerve ligation model in rats; assay type: in vivo; conditions: 62 mg/kg, at 0.5 hours
Experimental: [The response (threshold for foot withdrawal) was measured in grams.]

kainate (KA) receptors = test: Electrophysiology, kainate receptor currents; assay type: cell-based; conditions: at 100 μM, holding potential −70 mV
Description: (§1) The mechanisms of action of many currently marketed anticonvulsant drugs are not fully understood. Although numerous molecular targets exist wherein anticonvulsants may exert an effect, the final common pathway appears to be through modulation of voltage-gated and/or neurotransmitter-gated ion channels. Thus, the common link among the various proposed mechanisms involves the ability of an anticonvulsant to modulate ion channel function. Presently, a number of prototype anticonvulsants are thought to exert their action (at least in part) by reducing sustained, high-frequency repetitive firing of action potentials by modulating voltage-dependent sodium (Na+) channels. The effect of promising candidate substances on voltage-gated Na+ channels can be assessed using state-of-the-art electrophysiological techniques.

GABA receptors = test: Electrophysiology, GABA receptor currents; assay type: cell-based; conditions: at 100 μM, holding potential −70 mV
Description: as §1

sodium channels = test: Electrophysiology, sodium currents; assay type: cell-based; conditions: at 100 μM, ±S.E.M., 8 cells
Description: as §1
The effects of compound H (at a concentration of 100 μM) on sodium currents were evaluated in electrophysiological studies at holding potentials of −60 and −90 mV (using 8 cells). […] By way of comparison, the % of control inhibited for typical sodium-channel-blocking drugs such as phenytoin or lamotrigine is about 50%. […]

rats [4] = test: Lamotrigine-resistant amygdala-kindled rat model (LRM); assay type: in vivo
Description: Resistance to Lamotrigine can be induced in rats by treating them with the drug during the kindling acquisition phase (i.e., during kindling development in the epileptogenesis phase). Subsequently, the fully kindled Lamotrigine-refractory rats (i.e., now fully manifesting seizures) are also resistant (cross-tolerant) to carbamazepine, phenytoin, and topiramate, but not to valproate (or diazepam or the clinical Phase III drug candidate, retigabine).
The Lamotrigine-resistant amygdala-kindled rat model (LRM) may thus serve as an early model of drug-resistant (i.e., pharmacoresistant, refractory) epilepsy to identify novel AEDs for further evaluation in more extensive model systems, including the phenytoin-resistant kindled rat
The LRM thus serves to identify novel broad-spectrum AEDs which may be effective in the treatment of drug-resistant epilepsies. Up to 35% of epilepsy patients continue to suffer from uncontrolled seizures because of their drug-resistant epilepsies.

CYP-450 2E1 = CYP-450 2E1 (Homo sapiens, UniProt P05181); test: In vitro human CYP-450 study, 2E1; assay type: in vitro ADME; conditions: human enzyme
Chain of CYP-450 2E1 (P05181 whole entry): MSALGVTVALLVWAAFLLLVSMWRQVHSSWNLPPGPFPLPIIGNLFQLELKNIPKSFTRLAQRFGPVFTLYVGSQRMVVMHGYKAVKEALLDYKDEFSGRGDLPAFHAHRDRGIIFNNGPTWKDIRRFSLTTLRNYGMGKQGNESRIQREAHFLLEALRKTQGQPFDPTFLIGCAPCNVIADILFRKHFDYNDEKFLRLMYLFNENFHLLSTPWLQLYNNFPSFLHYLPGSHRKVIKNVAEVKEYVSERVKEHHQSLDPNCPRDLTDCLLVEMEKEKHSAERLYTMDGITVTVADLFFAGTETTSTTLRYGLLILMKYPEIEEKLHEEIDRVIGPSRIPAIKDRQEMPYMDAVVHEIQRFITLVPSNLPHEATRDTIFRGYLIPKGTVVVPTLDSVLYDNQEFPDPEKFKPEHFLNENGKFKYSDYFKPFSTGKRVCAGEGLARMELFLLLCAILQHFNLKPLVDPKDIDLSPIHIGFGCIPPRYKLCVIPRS
Description: On the other hand, it is an inhibitor for 2C19, 2D6, 2A6 and 2C9.

mice = test: MPTP-induced Parkinson's disease model in mice, behavioral assays; assay type: in vivo, C57/B16 male mice
Experimental: In FIG. 27A-27C, Data are Illustrated Showing the Effect of Oral Treatment of mice for two weeks with compound BX in an MPTP-induced Parkinson's disease model. MPTP (1-methyl-4-phenyl-1,2,3,6-tetrahydropyridine) is a neurotoxin precursor to MPP+, which causes permanent symptoms of Parkinson's disease by destroying dopaminergic neurons in the substantia nigra of the brain. It has been used to study disease models in various animal studies.
In the study, 9 month-old C57/B16 male mice were treated for 7 days of MPTP injection at a rate of 25 mg/kg dose: once a day. Mice in the treatment group were subsequently treated with 14 days of gavage with compound BX at a rate of 50 μg/gram dose: once a day. Treatment was followed with 5 days of behavioral assays
Mice were scored on the number of legs slips per crossing.
Mice tend to groom more often when they are healthy and feeling content.

hippocampal neurons = test: Hippocampal cell loss after pilocarpine-induced SE (FluoroJade B); assay type: in vivo; conditions: given 30 minutes after the first stage 3 convulsive seizure
Description: Pilocarpine-induced SE results in marked cell loss in the hippocampus, when compared to the naïve vehicle-treated rats, as evidenced by increased FluoroJade B fluorescence in the dentate gyrus (DG), CA1, and CA3 cell layers.

[5] = tested on: mRNA levels of potential targets; test: PCR array using real-time PCR (mRNA levels); conditions: mRNA level
Description: Tables 11 and 12 illustrate PCR array data using real-time PCR to track mRNA levels for various potential targets of compound BX.

With `CC(CC(N)=O)c1ccc(OC(F)(F)F)cc1` (racemic) [Compound H, 3-[4-(trifluoromethoxy)-phenyl]butyramide] the ED50 (rats [1]) was 56.7 mg/kg, the “seizure score, Preliminary Hippocampal Kindling Screening” value (rats [2]) was “zero” and the allodynic threshold (rats [3]) was 455 % of the control. For the same molecule, the “kainate (KA) receptor response” value (kainate (KA) receptors) was 99±1 % of control, the GABA receptor response (GABA receptors) was 108±3 % of control and the sodium currents (sodium channels; holding potential −60 mV) was 91±1 % of control. The sodium currents (sodium channels; holding potential −90 mV) was 98±1 % of control, the “activity in the LRM” value (rats [4]) was “active” and the “inhibition of CYP-450 2E1” value (CYP-450 2E1) was “either no or only a remote possibility of inhibiting”.

In the case of `C[C@H](CC(N)=O)c1ccc(OC(F)(F)F)cc1` (single isomer, unassigned) [Compound BX, R-(−)-3-(4-Trifluoromethoxy-phenyl)butyramide], the “hindlimb clasping test, abnormal involuntary movement” value (mice; gavage 50 μg/gram once a day for 14 days) is reported as “reduced MPTP-induced abnormal involuntary movement”, the “coat grooming test, grooming behavior” value (mice; oral treatment for two weeks) is reported as “significantly improved the grooming behavior” and the “crossbeam test, motor coordination / leg slips” value (mice; oral treatment for two weeks) is reported as “significantly improved the motor coordination and reduced the number of leg slips”. For the same molecule, the “rats with partial neuroprotection (CA3 and hilar neurons of DG preserved)” value (hippocampal neurons) was 2, the “animals with complete neuroprotection of hippocampal neurons against SE-induced cell death” value (hippocampal neurons; rats) was 11/15 and the “Fold increase, Als2 (Amyotrophic lateral sclerosis 2 homolog)” value [5] was 109.36. For the same molecule, the “Fold increase, Atp2b2 (ATPase, Ca++ transporting, plasma membrane 2)” value [5] was −5.85, the “Fold increase, Bdnf (Brain-derived neurotrophic factor)” value [5] was 2.58 and the “Fold increase, Cat (Catalase)” value [5] was 82.03. For the same molecule, the “Fold increase, Gclc (Glutamate-cysteine ligase, catalytic subunit)” value [5] was 5.79, the “Fold increase, Htr2a (5-HT (serotonin) receptor 2A)” value [5] was −3.11 and the “Fold increase, Ldha (Lactate dehydrogenase A)” value [5] was −9.66. The “Fold increase, Ntrk2 (Neurotrophic tyrosine kinase, receptor, type 2)” value [5] was −2.07, the “Fold increase, P62630 (Aldehyde oxidase 1)” value [5] was 2.1 and the “Fold increase, Prdx2 (Peroxiredoxin 2)” value [5] was 9.66. The “Fold increase, Psmb5 (Proteasome subunit, beta type 5)” value [5] was 3.02, the “Fold increase, Slc6a3 (Solute carrier family 6 (DAT), member 3)” value [5] was −5.59 and the “Fold increase, Snca (Alpha-Synuclein)” value [5] was −2.14. For the same molecule, the “Fold increase, Syngr3 (Synaptogyrin 3)” value [5] was 2.25, the “Fold increase, Syt1 (Synaptotagmin I)” value [5] was 2.19 and the “Fold increase, Ubb (Ubiquitin B)” value [5] was 3.23. For the same molecule, the “Fold increase, Ube2k (Ubiquitin-conjugating enzyme E2K)” value [5] was 2.98.
